Data on 11 compounds can be found in publication PMC9774939, “Optimization of Pyrazole Compounds as Antibiotic Adjuvants Active against Colistin- and Carbapenem-Resistant Acinetobacter baumannii” (Antibiotics, 2022).

Values after ≈ are worked out from the molar mass of the structure shown. Bounds are passed on as bounds.

For one data set, the system named is Enterococcus faecalis. Nature of the data set: Broth microdilution MIC. The format is cell-based. Particulars: compound alone. The protocol: (§1) The minimum inhibitory concentration (MIC) and minimum bactericidal concentration (MBC) of the compounds were determined in triplicate using Mueller–Hinton broth and a bacterial inoculum of 5 × 10^5 CFU/mL, as recommended by the CLSI [26]. The minimum antibacterial concentration (MAC) of the compounds was determined in the presence of a fixed and subinhibitory concentration of colistin (as mentioned above).
(In general: Dilution methods test growth across graded concentrations, often in twofold steps.)

For the next data set, the system named is Streptococcus pyogenes. Nature of the data set: Broth microdilution MIC. It is filed as cell-based. Particulars: compound alone. The procedure: as §1
A further data set concerns Bacillus subtilis. Nature of the data set: Broth microdilution MIC. The format is cell-based. The following applies: compound alone. The protocol:
as §1

A further data set relates to Staphylococcus aureus. Nature of the data set: Broth microdilution MIC. The following applies: compound alone. The format is cell-based. The procedure: as §1
Data set [1] has as its system eight reference strains, Gram-positive and Gram-negative. Put plainly: Agar diffusion test, direct antibacterial activity. The format is cell-based. The following applies: for growth inhibition zone diameter: agar diffusion, on Gram-positive organisms; for direct-acting antibacterial activity (agar diffusion): eight reference strains. The protocol: Compounds 3–40, 42, 44–47, and 49 (Scheme 1, Scheme 2, Scheme 3, Scheme 4 and Scheme 5) were subjected to a detailed investigation of their direct and synergistic antibacterial activity and potential cytotoxicity by using several methods. The direct antibacterial activity of these compounds was determined using both agar diffusion and broth microdilution methods. The former was initially used to identify potentially active compounds and was tested on eight reference strains, with representatives of both Gram-positive and Gram-negative clinically relevant bacterial species or genera (Figure 4).
The compounds were provided as powders and dissolved in 100% DMSO at a final concentration of 50 mg/mL. When a compound was not soluble, DMSO was further added to lower the concentration to 25 mg/mL or, when necessary, 12.5 or 6.25 mg/mL, until the compound was completely solubilized. The primary screen used in the evaluation of the direct antibacterial activity through an agar diffusion test was implemented on a 8-channel, automated liquid-handling platform (PerkinElmer Janus Integrator, Waltham, Mass.), which was located under a custom-made class 1000 laminar flow cabinet (Faster, Cornaredo, Italy). Briefly, 1-well plates (Thermo Fisher Scientific, Waltham, Mass.), previously filled with Mueller–Hinton Agar medium, were inoculated with a suspension of the bacterium in a sterile 0.9% NaCl solution containing 1.5 × 10^8 CFU/mL, using a sterile swab. Indicator organisms included 4 Gram-positive (Bacillus subtilis ATCC 6633, Enterococcus faecalis ATCC 29212, Staphylococcus epidermidis ATCC 14990, and Streptococcus pyogenes ATCC 12344) and 4 Gram-negative (Escherichia coli CCUG^T, Klebsiella pneumoniae ATCC 13833, Pseudomonas aeruginosa ATCC 27853, and Acinetobacter baumannii ATCC 17978) strains, which were routinely propagated using Mueller–Hinton Agar plates. In total, 2 μL of each solution of compounds was dispensed on the plate surface (corresponding to 100, 50, 25, or 12.5 μg of compound according to its solubility). The controls included the solvent (100% DMSO), kanamycin, piperacillin, ceftazidime, vancomycin, and teicoplanin. The results were recorded as the diameter of the growth inhibition zone. The inhibition zones of the controls (max variation from expected diameter, ± 1 mm) were used as the validation criteria. The assays were performed at least in duplicate, and the position in which a single compound was spotted on the plate was randomly modified in any successive experiment.
(Agar diffusion results depend on both activity and mobility in agar.)

The test system of data set [2] is bacterial reference strains. Nature of the data set: Broth microdilution MIC, direct activity. It is filed as cell-based. The procedure:
as §1

For another data set, the system named is Escherichia coli CCUG^T. Put plainly: MAC determination in the presence of subinhibitory colistin. Particulars: for MAC Eco: in the presence of 0.5 × MIC colistin. The arrangement: key to MAC Eco: -: No synergistic activity. The format is cell-based. The protocol: as §1
For data set [3], the system named is Acinetobacter baumannii ATCC 17978. The description is as above. It is filed as cell-based. Particulars: for MAC Aba: in the presence of 0.5 × MIC colistin; for MIC/MAC Ratio Aba: minimal ratio of MIC of compound alone to MAC with 0.5 × MIC colistin. The procedure:
as §1

For data set [4], the system named is Klebsiella pneumoniae ATCC 13833. The data set is described as above. It is filed as cell-based. Also on record: key to MAC Kpn: -: No synergistic activity. The following applies: for MAC Kpn: in the presence of 0.5 × MIC colistin; for MIC/MAC Ratio Kpn: minimal ratio of MIC of compound alone to MAC with 0.5 × MIC colistin. The procedure: as §1

In turn, `CCOC(=O)NS(=O)(=O)c1ccc(NC(=O)c2nn(-c3ccc(Cl)cc3)c(-n3cccc3)c2C)cc1` [Compound 47, Ethyl [[4-[1-(4-Chlorophenyl)-4-methyl-5-(1H-pyrrol-1-yl)-1H-pyrazole-3-carboxamido]phenyl]sulfonyl]carbamate] returned a melting point of 188 to 190 °C. The compound further returned a minimal inhibitory concentration (MIC) against Enterococcus faecalis of 32 µg/mL (≈ 60.6 µM). The compound further showed a minimal inhibitory concentration (MIC) with Streptococcus pyogenes of 16 µg/mL (≈ 30.3 µM). In addition, inhibition of growth in the data set on Bacillus subtilis (MIC) required 32 µg/mL (≈ 60.6 µM). In addition, the MIC in the data set on Staphylococcus aureus came out at 32 µg/mL (≈ 60.6 µM). The “growth inhibition zone diameter” value in data set [1] was “up to 18 mm”.

`CC(C)[C@H](NC(=O)c1cnn(-c2ccccc2)c1-n1cccc1)C(=O)O` [Compound 17, (S)-3-Methyl-2-[[[1-phenyl-5-(1H-pyrrol-1-yl)-1H-pyrazol-4-yl]carbonyl]amino]butanoic Acid] registered a melting point of 150 to 152 °C. The compound also returned a minimal inhibitory concentration (MIC) in [2] of at least 512 µg/mL. Moreover, in data set [1], the “direct-acting antibacterial activity (agar diffusion)” value (shortened to “direct-acting antibacterial activity”) is “broad-spectrum, though moderate, direct-acting antibacterial activity”.

In the case of `Cc1c(C(=O)Nc2ccc(C(=O)O)cc2)nn(-c2ccc(Cl)cc2)c1-n1cccc1` [Compound 40, 4-[[[1-(4-Chlorophenyl)-4-methyl-5-(1H-pyrrol-1-yl)-1H-pyrazol-3-yl]carbonyl]amino]benzoic Acid], the melting point is above 250 °C. The same compound returned an MIC in the data set on Enterococcus faecalis of 32 µg/mL (≈ 76 µM). In addition, the MIC against Streptococcus pyogenes was determined as 16 µg/mL (≈ 38 µM). In addition, in the data set with Bacillus subtilis, the MIC worked out at 32 µg/mL (≈ 76 µM). In the data set on Staphylococcus aureus, this compound yielded a minimal inhibitory concentration (MIC) of 32 µg/mL (≈ 76 µM). In addition, the “growth inhibition zone diameter” value in [1] is recorded as “up to 18 mm”.

Turning to `O=C(O)CNC(=O)c1cnn(-c2ccccc2)c1-n1cccc1` [Compound 15, [[[1-Phenyl-5-(1H-pyrrol-1-yl)-1H-pyrazol-4-yl]carbonyl]amino]acetic Acid], the melting point fell in the range of 191 to 194 °C. The compound also came in with an MIC in data set [2] of at least 512 µg/mL. In addition, in data set [1], the “direct-acting antibacterial activity” value is listed as “broad-spectrum, though moderate, direct-acting antibacterial activity”.

`C[C@H](NC(=O)c1cnn(-c2ccccc2)c1-n1cccc1)C(=O)O` [Compound 16, (S)-2-[[[1-Phenyl-5-(1H-pyrrol-1-yl)-1H-pyrazol-4-yl]carbonyl]amino]propanoic Acid] gave a melting point of 142 to 145 °C. The MIC in [2] was at least 512 µg/mL. Besides, in [1], the “direct-acting antibacterial activity” value is “broad-spectrum, though moderate, direct-acting antibacterial activity”.

In the case of `Cc1c(C(=O)N2CCN(C)CC2)nn(-c2ccc(Cl)cc2)c1-n1cccc1` [Compound 28, [1-(4-Chlorophenyl)-4-methyl-5-(1H-pyrrol-1-yl)-1H-pyrazol-3-yl](4-methylpiperazin-1-yl)methanone], the melting point is 178 to 182 °C. The “MAC Eco” value in the data set with Escherichia coli CCUG^T was 64 µg/mL. The “MIC/MAC Ratio Eco” value with Escherichia coli CCUG^T (minimal ratio of MIC of compound alone to MAC with 0.5 × MIC colistin) was found to be 8. Moreover, in [3], the “MAC Aba” value turned out to be 64 µg/mL and the “MIC/MAC Ratio Aba” value was 8. Further, in data set [4], the “MAC Kpn” value is given as 64 µg/mL and the “MIC/MAC Ratio Kpn” value is 8.

The compound `Cc1c(C(=O)Nc2cccc(C(=O)O)c2)nn(-c2ccc(Cl)cc2)c1-n1cccc1` [Compound 42, 3-[[[1-(4-Chlorophenyl)-4-methyl-5-(1H-pyrrol-1-yl)-1H-pyrazol-3-yl]carbonyl]amino]benzoic Acid] registered a melting point of 248 to 250 °C. The compound also registered an MIC in data set [2] of at least 512 µg/mL. Moreover, the MIC in the data set with Enterococcus faecalis worked out at 32 µg/mL (≈ 76 µM). Further, in the data set with Streptococcus pyogenes, 16 µg/mL (≈ 38 µM) was the least that counted as inhibitory (MIC). The compound further gave an MIC in the data set on Bacillus subtilis of 32 µg/mL (≈ 76 µM). Moreover, the minimum inhibitory concentration (MIC) in the data set on Staphylococcus aureus is 32 µg/mL (≈ 76 µM). In data set [1], the “growth inhibition zone diameter” value is “up to 18 mm” and the “direct-acting antibacterial activity” value is given as “broad-spectrum, though moderate, direct-acting antibacterial activity”.

Compound `Cc1c(C(=O)N[C@@H](Cc2ccccc2)C(=O)OC(C)(C)C)nn(-c2c(Cl)cc(Cl)cc2Cl)c1-n1c(C)ccc1C` [Compound 39, tert-Butyl (S)-3-Phenyl-2-[[[4-methyl-1-(2,4,6-trichlorophenyl)-5-(2,5-dimethyl-1H-pyrrol-1-yl)-1H-pyrazol-3-yl]carbonyl]amino]propanoate] yielded a melting point of 72 to 81 °C. For the same compound, in the data set with Escherichia coli CCUG^T, the “MAC Eco” value was “-”. Also, in [3], the “MAC Aba” value turned out to be 32 µg/mL and the “MIC/MAC Ratio Aba” value was determined as 16. Moreover, the “MAC Kpn” value in [4] is reported as “-”.

As for `CC(C)(C)OC(=O)Nc1c(C(=O)NCc2ccc(Br)cc2)cnn1-c1ccccc1` [Compound 20, N-(4-Bromobenzyl)-5-(tert-butoxycarbonylamino)-1-phenyl-1H-pyrazole-4-carboxamide], the melting point lay within 175 to 176 °C. For the same compound, in the data set on Escherichia coli CCUG^T, the “MAC Eco” value was “-”. In [3], the “MAC Aba” value is reported as 64 µg/mL and the “MIC/MAC Ratio Aba” value amounted to 8. Further, in data set [4], the “MAC Kpn” value came out at 64 µg/mL and the “MIC/MAC Ratio Kpn” value was found to be 8.

Turning to `C[C@H](NC(=O)CNC(=O)c1cnn(-c2ccccc2)c1-n1cccc1)C(=O)O` [Compound 19, N-[N-[[1-Phenyl-5-(1H-pyrrol-1-yl)-1H-pyrazol-4-yl]carbonyl]glycyl]-L-alanine], the melting point was 80 to 84 °C. In [2], this compound gave an MIC of at least 512 µg/mL. Moreover, in [1], the “direct-acting antibacterial activity” value was “broad-spectrum, though moderate, direct-acting antibacterial activity”.

With `Cc1c(C(=O)Nc2ccccc2C(=O)O)nn(-c2ccc(Cl)cc2)c1-n1cccc1` [Compound 44, 2-[[[1-(4-Chlorophenyl)-4-methyl-5-(1H-pyrrol-1-yl)-1H-pyrazol-3-yl]carbonyl]amino]benzoic Acid], the melting point is 270 to 272 °C. This compound gave an MIC with Enterococcus faecalis of 32 µg/mL (≈ 76 µM). For the same compound, in the data set on Streptococcus pyogenes, the MIC turned out to be 16 µg/mL (≈ 38 µM). In the data set with Bacillus subtilis, this compound came in with an MIC of 32 µg/mL (≈ 76 µM). In the data set with Staphylococcus aureus, this compound gave an MIC of 32 µg/mL (≈ 76 µM). Further, the “growth inhibition zone diameter” value in data set [1] is listed as “up to 18 mm”.

As usually defined, the melting point is the temperature of the solid-liquid transition. A word on the MIC: it is the smallest concentration in the dilution series that meets the test's criterion for growth inhibition.
